Measured values reported in ChEMBL document CHEMBL1201862, “PubChem BioAssay data set” (2004).
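Five compound concentrations were applied to cells in 96-well plates for 48 hours; endpoints were derived by simple linear interpolation of the resulting dose-response curve. The concentration for 50% growth inhibition is given as GI50.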 The source made the active and inactive calls. Rule as the data show it: active = GI50 up to about 1.1 µM and inactive = higher.

Legend:
Experiment in all cases: growth of human tumour cells (NCI), 48 h
HCT-116 = system: HCT-116
NCI-H522 = system: NCI-H522
SF-268 = system: SF-268
SNB-19 = system: SNB-19
U-251 = system: U-251
TK-10 = system: TK-10
ACHN = system: ACHN
NCI-H226 = system: NCI-H226
UACC-257 = system: UACC-257
DMS-273 = system: DMS-273
DLD-1 = system: DLD-1
SF-539 = system: SF-539
HL-60 = system: HL-60
SK-MEL-2 = system: SK-MEL-2
IGROV-1 = system: IGROV-1
OVCAR-5 = system: OVCAR-5
LOX IMVI = system: LOX IMVI
RPMI-8226 = system: RPMI-8226
MDA-N = system: MDA-N
NCI/ADR-RES = system: NCI/ADR-RES

SMILES	GI50 (HCT-116)	GI50 (NCI-H522)	GI50 (SF-268)	GI50 (SNB-19)	GI50 (U-251)	GI50 (TK-10)	GI50 (ACHN)	GI50 (NCI-H226)	GI50 (UACC-257)	GI50 (DMS-273)	GI50 (DLD-1)	GI50 (SF-539)	GI50 (HL-60)	GI50 (SK-MEL-2)	GI50 (IGROV-1)	GI50 (OVCAR-5)	GI50 (LOX IMVI)	GI50 (RPMI-8226)	GI50 (MDA-N)	GI50 (NCI/ADR-RES)
CC1(C)OC(=O)[C@@](C)([C@H](O)c2ccccc2)O1	93.8 µM (inactive)	67 µM (inactive)	> 100 µM (inactive)	> 100 µM (inactive)	> 100 µM (inactive)	> 100 µM (inactive)	> 100 µM (inactive)	27.6 µM (inactive)	> 100 µM (inactive)	> 100 µM (inactive)	> 100 µM (inactive)	> 100 µM (inactive)	32.6 µM (inactive)	> 100 µM (inactive)	94.6 µM (inactive)					
Cc1c(C)c2ccc3oc4ccccc4c3c2oc1=O	96.4 µM (inactive)	> 100 µM (inactive)	> 100 µM (inactive)	> 100 µM (inactive)	> 100 µM (inactive)	> 100 µM (inactive)	> 100 µM (inactive)	> 100 µM (inactive)	> 100 µM (inactive)		> 100 µM (inactive)	> 100 µM (inactive)	> 100 µM (inactive)		> 100 µM (inactive)	> 100 µM (inactive)	> 100 µM (inactive)	> 100 µM (inactive)		
COC(=O)c1ncc2c(=O)[nH]c3ccccc3c2c1C(=O)OC	> 100 µM (inactive)		> 100 µM (inactive)	> 100 µM (inactive)		> 100 µM (inactive)	> 100 µM (inactive)	> 100 µM (inactive)	> 100 µM (inactive)	> 100 µM (inactive)	> 100 µM (inactive)	> 100 µM (inactive)	> 100 µM (inactive)	> 100 µM (inactive)	> 100 µM (inactive)	> 100 µM (inactive)	> 100 µM (inactive)	> 100 µM (inactive)		
CCOC(=O)NC(=O)c1cn(CCCOC(=O)CCCCCCCCC(=O)OCCCn2cc(C(=O)NC(=O)OCC)c(=O)[nH]c2=O)c(=O)[nH]c1=O	24.2 µM (inactive)			22.3 µM (inactive)	16.7 µM (inactive)	22.3 µM (inactive)	21.1 µM (inactive)		16.9 µM (inactive)	20.5 µM (inactive)	17.8 µM (inactive)	23.8 µM (inactive)	5.14 µM (inactive)		20.9 µM (inactive)		16.4 µM (inactive)	5.22 µM (inactive)		
CCOCN1COCN/C1=N/C#N	> 100 µM (inactive)	> 100 µM (inactive)	> 100 µM (inactive)	> 100 µM (inactive)	> 100 µM (inactive)	> 100 µM (inactive)	> 100 µM (inactive)	> 100 µM (inactive)	> 100 µM (inactive)	> 100 µM (inactive)	> 100 µM (inactive)	> 100 µM (inactive)	> 100 µM (inactive)	> 100 µM (inactive)	> 100 µM (inactive)	> 100 µM (inactive)				
Cc1cc(C)c(C(=O)/C=C/c2ccccc2)c(C)c1	24.8 µM (inactive)	19.1 µM (inactive)	20.6 µM (inactive)	28.5 µM (inactive)	15.9 µM (inactive)	47.5 µM (inactive)	38.4 µM (inactive)	22.8 µM (inactive)	33.8 µM (inactive)		22.6 µM (inactive)	> 10 µM (inactive)	25.9 µM (inactive)	10.4 µM (inactive)	77.4 µM (inactive)			29.8 µM (inactive)		
N#Cc1nn(-c2ccc(Cl)cc2)c(=N)c2c(N)n3nc(-c4ccccc4)cc3nc12	1 µM (active)		0.635 µM (active)	1 µM (active)	0.556 µM (active)	> 100 µM (inactive)	1 µM (active)	39.7 µM (inactive)	1 µM (active)	1 µM (active)	1 µM (active)	0.497 µM (active)	> 100 µM (inactive)	1 µM (active)	0.546 µM (active)	1 µM (active)	0.594 µM (active)	1 µM (active)		
CC(Br)C(=O)NC(CO)C(=O)O (stereo unspecified)	> 100 µM (inactive)	> 100 µM (inactive)	> 100 µM (inactive)	> 100 µM (inactive)	> 100 µM (inactive)	> 100 µM (inactive)	> 100 µM (inactive)	> 100 µM (inactive)	> 100 µM (inactive)			> 100 µM (inactive)	> 100 µM (inactive)	> 100 µM (inactive)	> 100 µM (inactive)	> 100 µM (inactive)	> 100 µM (inactive)	> 100 µM (inactive)	> 100 µM (inactive)	> 100 µM (inactive)
